The values below come from patent US20040097566A1, “2-Substituted thiazolidinone and oxazolidinone derivatives for the inhibition of phosphatases and the treatment of cancer” (priority 2001, published 2004).

One may read the melting point as the temperature, or range, at which the solid turns liquid. `COc1ccc(-c2ccc(O)c(C34CC5CC(CC(C5)C3)C4)c2)cc1/C=C1\SC(N2CCOCC2)=NC1=O` [Compound 86, 5-[3-(3-Adamantan-1-yl-4-hydroxy-phenyl)-6-methoxy-benzylidene]-2-morpholin-4-yl-thiazol-4-one] yielded a melting point of 355 to 360 °C.

On to `O=C1N=C(N2CCOCC2)S/C1=C\c1cc(-c2ccc(O)c(C34CC5CC(CC(C5)C3)C4)c2)c(O)cc1O` [Compound 104, 5-[3-(3-Adamantan-1-yl-4-hydroxy-phenyl)-4,6-dihydroxy-benzylidene]-2-morpholin-4yl-thiazol-4-one], for which the melting point fell in the range of 306 to 310 °C.

`O=C1N=C(N2CCC2)S/C1=C\c1cccc(-c2cc(F)c(O)c(C34CC5CC(CC(C5)C3)C4)c2)c1` [Compound 108] showed a melting point of 154 to 157 °C.
